Biological target: T1, Protein Mdm4 (Homo sapiens, UniProt O15151)
T1 sequence (O15151 whole entry): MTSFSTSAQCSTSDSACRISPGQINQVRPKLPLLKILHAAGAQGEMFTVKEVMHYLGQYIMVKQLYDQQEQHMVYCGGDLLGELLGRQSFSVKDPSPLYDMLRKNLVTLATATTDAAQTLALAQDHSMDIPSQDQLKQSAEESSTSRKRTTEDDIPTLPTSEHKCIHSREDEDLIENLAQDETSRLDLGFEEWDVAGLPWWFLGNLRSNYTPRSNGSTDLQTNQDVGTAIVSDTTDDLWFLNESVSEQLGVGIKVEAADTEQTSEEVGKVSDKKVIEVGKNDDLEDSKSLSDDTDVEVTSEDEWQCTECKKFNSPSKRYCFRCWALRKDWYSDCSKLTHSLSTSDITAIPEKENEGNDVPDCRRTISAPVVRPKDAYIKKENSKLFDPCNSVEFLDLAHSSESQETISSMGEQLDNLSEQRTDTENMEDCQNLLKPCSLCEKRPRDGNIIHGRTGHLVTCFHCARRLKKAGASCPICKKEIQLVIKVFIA
Assay: disruption of Mdm2/MdmX protein binding – luminescence detection, dose response (AID 504593)

Cc1cc(N=NC(C)c2ccccc2O)nc(-c2ccccc2O)n1 (stereo unspecified)
IC50: 6.71 µM
